Reference: US20230000842A1, “METHODS OF TREATING CARTILAGE DISORDERS THROUGH INHIBITION OF CLK AND DYRK” (SAMUMED, LLC, priority 2019, published 2023)

Legend:
CLK3 kinase = CLK3 kinase (Homo sapiens, UniProt P49761); experiment: CLK3 kinase activity assay (Z-lyte FRET); format: biochemical; details: Z-lyte Ser/Thr 18 peptide, 156 μM ATP, 1 h at room temperature;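 also: kinase activity read as coumarin/fluorescein emission ratio by FRET, unphosphorylated peptide as 0% and phosphorylated peptide as 100% control, values from non-linear regression of dose-response curves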
[1] = system: MMP-3 levels in supernatant of chondrocytes stimulated with IL1-β; experiment: Chondrocyte protection assay compound screening (MMP-3 LANCE Ultra); format: cell-based, human; details: Homo sapiens, Chondrocyte, IL1-β 10 ng/mL overnight, 11-point curves from 3 μM to 0.05 nM; for Emax: read-out: Maximum % Inhibition
Description: Human Chondrocyte Cell Culture: Primary human chondrocytes were purchased from Lonza (Walkersville, Md.) and expanded in Chondrocyte Growth Media (CGM, Lonza). Cells between passage 2 and 5 were used for the experiments.
Chondrocytes were plated at 8,000 cells/well in 40 μL/well Chondrocyte Differentiation Medium (Lonza; 500 mL Basal Medium, 25 mL FBS, 0.5 mL GA-1000, 1 mL R3-IGF, 2.5 mL bFGF, 0.5 mL Transferrin, and 1 mL Insulin). After 2 hours of incubation at 37° C. and 5% CO2, IL1-β (Peprotech, Rocky Hill, N.J.) was added to a final concentration of 10 ng/mL. 11 wells in 1 row were left unstimulated for normalization and calculating EC50 values. Cells were incubated at 37° C. and 5% CO2 overnight. Assay plates are spun, 25 μl of supernatant media was collected using (S2 pipettor, Apricot Designs). Cells were lysed using 10 μL of (Cell Titer-Glo, Promega). Luminescent signal detected using an En Vision Multilabel reader (Perkin Elmer). MMP-3 levels were measured in supernatant. Supernatant diluted 1:7 in DMEM. MMP-3 levels in the supernatant were measured using MMP-3 LANCE Ultra detection kit (Perkin Elmer). Briefly, 5 μL of diluted supernatant was transferred to low-volume 384 well plates using (S2 pipettor, Apricot Designs). A standard curve was prepared using MMP-3 analyte (range […]). 1.7 μL of 8× mix of Eu-labelled anti-MMP-3 antibody and ULight labelled anti-MMP-3 antibody was added to the plates using Mantis Liquid handler (Formulatrix). Plates were incubated overnight at room temperature. LANCE signal was detected using an EnVision Multilabel reader (Perkin Elmer), equipped with TR-FRET using excitation wavelength of 320 nm and two emission wavelengths of 615 nm and 665 nm. Data was analyzed according to the kit protocol, using the ratio of […] and the standard curve values were used to calculate the amount of MMP3 in the […] (in pg/ml). The normalized averages (fold change over IL1-β stimulated) for each compound concentration were calculated. EC50 and maximum % inhibition values were calculated using the dose-response nonlinear regression curve-fit in Dotmatics.

CLK2 kinase = CLK2 kinase (Homo sapiens, UniProt P49760); experiment: CLK2 kinase activity assay (Z-lyte FRET); format: biochemical; details: Z-lyte Ser/Thr 6 peptide, 60 μM ATP, 1 h at room temperature;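 also: FRET read-out as coumarin to fluorescein emission ratio, unphosphorylated peptide as 0% and phosphorylated peptide as 100% controls, duplicate reactions, non-linear regression fit of dose-response curves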
[2] = system: primary human mesenchymal stem cells (hMSCs); experiment: Chondrogenesis screening using primary human mesenchymal stem cells; format: cell-based; details: Homo sapiens, Mesenchymal stem cells, hMSC chondrogenesis; maximum activity relative to TGF-β3 (10 ng/mL) positive control; read-out: Max. Activity as % TGF-β3 activity
Outline: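 Primary hMSCs at passage 3–6 were treated across compound concentrations, with TGF-β3 as positive control. Chondrogenic nodule area per well was normalized to 3 DMSO wells on the same plate (fold over DMSO, 2–3 replicates). EC50, maximum activity and the dose reaching it were derived.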

Sequence of CLK3 kinase (P49761 whole entry): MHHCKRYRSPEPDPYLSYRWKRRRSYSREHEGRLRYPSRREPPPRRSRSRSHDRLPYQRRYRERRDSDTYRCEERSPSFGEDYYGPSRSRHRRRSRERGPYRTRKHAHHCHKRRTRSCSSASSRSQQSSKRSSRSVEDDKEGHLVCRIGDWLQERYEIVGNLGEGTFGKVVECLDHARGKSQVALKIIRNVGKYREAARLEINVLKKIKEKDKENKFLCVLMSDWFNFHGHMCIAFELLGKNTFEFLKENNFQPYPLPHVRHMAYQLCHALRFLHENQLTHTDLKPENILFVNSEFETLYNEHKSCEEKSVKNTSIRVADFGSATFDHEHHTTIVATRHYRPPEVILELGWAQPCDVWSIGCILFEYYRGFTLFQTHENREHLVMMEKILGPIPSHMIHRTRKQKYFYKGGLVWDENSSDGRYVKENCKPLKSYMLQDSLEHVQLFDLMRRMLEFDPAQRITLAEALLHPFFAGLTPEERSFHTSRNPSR
Sequence of CLK2 kinase (P49760 whole entry): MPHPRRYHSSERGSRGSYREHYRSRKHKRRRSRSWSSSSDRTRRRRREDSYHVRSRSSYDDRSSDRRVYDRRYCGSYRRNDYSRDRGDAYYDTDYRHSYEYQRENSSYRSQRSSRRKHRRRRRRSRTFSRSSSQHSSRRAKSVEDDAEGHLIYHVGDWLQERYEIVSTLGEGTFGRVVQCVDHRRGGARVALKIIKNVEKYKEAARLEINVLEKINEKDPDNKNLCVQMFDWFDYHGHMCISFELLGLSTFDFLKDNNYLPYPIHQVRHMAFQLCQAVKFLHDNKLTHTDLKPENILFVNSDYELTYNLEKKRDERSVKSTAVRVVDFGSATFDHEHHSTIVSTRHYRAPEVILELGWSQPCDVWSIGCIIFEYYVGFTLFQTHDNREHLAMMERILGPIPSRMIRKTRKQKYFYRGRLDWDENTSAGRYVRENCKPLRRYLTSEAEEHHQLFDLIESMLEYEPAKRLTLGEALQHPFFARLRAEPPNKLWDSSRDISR

Structure (SMILES)	EC50 (CLK3 kinase)	EC50 [1]	Emax [1]	EC50 (CLK2 kinase)	Emax [2]
CN1CCN(c2cc(C(=O)Nc3cc4cc(-c5cnn(C6CC6)c5)ccc4cn3)ccn2)CC1 [compound 565]	0.071 µM	0.0122 µM	76.6%	0.006 µM	
CN1CCN(c2cc(C(=O)Nc3cc4cc(-c5cnn(C)c5N)ccc4cn3)ccn2)CC1 [compound 566]	0.034 µM	0.0115 µM	43.8%		
Cn1ncc(-c2ccc3cnc(NC(=O)c4ccc(OC(F)F)cc4)cc3c2)c1CO [compound 567]	0.261 µM	1.37 µM	69.8%	0.008 µM	
CN1CCC2(CC1)CN(c1cc(C(=O)Nc3cc4cc(-c5cnn(C)c5CO)ccc4cn3)ccn1)C2 [compound 568]	0.044 µM	≥ 3 µM	42.7%	0.003 µM	
Cn1ncc(-c2ccc3cnc(NC(=O)c4cccc(CN5CCCC5)c4)cc3c2)c1CN1CCCCC1 [compound 572]	0.015 µM	1.19 µM	96.5%	0.002 µM	27.6%
Cn1ncc(-c2ccc3cnc(NC(=O)c4ccnc(N5CCOCC5)c4)cc3c2)c1CN1CCOCC1 [compound 573]	0.008 µM	≥ 3 µM	70%	0.002 µM	
CC(C)N1CCC(Oc2cc(C(=O)Nc3cc4cc(-c5cnn6c5CCNC6)ccc4cn3)ccn2)CC1 [compound 575]	0.026 µM	0.0758 µM	41.5%	0.002 µM	18.6%
CN1CCN(c2ccc(C(=O)Nc3cc4cc(-c5cnn6c5CN(CCF)CC6)ccc4cn3)cn2)CC1 [compound 576]	0.081 µM	≥ 3 µM	62.6%	0.002 µM	
CN1CCc2cc(C(=O)Nc3cc4cc(-c5cn(C)nn5)ccc4cn3)ccc2C1 [compound 578]	0.048 µM	≥ 3 µM	37.6%		
Cn1cncc1-c1ccc2cnc(NC(=O)c3ccc(F)cc3)cc2c1 [compound 580]	0.033 µM	≥ 3 µM	59.4%	0.001 µM	24.9%
Cn1cncc1-c1ccc2cnc(NC(=O)c3ccnc(N4CCN(C5CC5)CC4)c3)cc2c1 [compound 582]	0.018 µM	≥ 3 µM	52.2%	0.002 µM	
CN1Cc2ccc(C(=O)Nc3cc4cc(-c5cncn5C)ccc4cn3)cc2C1 [compound 583]	0.027 µM	≥ 3 µM	67.5%	0.002 µM	
Cc1ncc(-c2ccc3cnc(NC(=O)c4ccc(OC(C)C)cc4)cc3c2)n1C [compound 588]	0.07 µM	0.0105 µM	74.7%	0.002 µM	
NC1CN(c2cc(C(=O)Nc3cc4cc(-c5cnco5)ccc4cn3)ccn2)C1 [compound 590]	0.04 µM	≥ 3 µM	33.2%	0.004 µM	
CN1CCN(c2cc(C(=O)Nc3cc4cc(-c5cncs5)ccc4cn3)ccn2)CC1 [compound 591]	0.02 µM	0.423 µM	100%		22.3%
O=C(Nc1cc2cc(-c3cncs3)ccc2cn1)c1ccc2c(c1)CNCC2 [compound 592]	0.043 µM	≥ 3 µM	29.7%	0.002 µM	
CN1CCN(c2cc(C(=O)Nc3cc4cc(-c5cnc(N)s5)ccc4cn3)ccn2)CC1 [compound 593]	0.022 µM	0.0004 µM	62.9%	0.003 µM	
Cc1nnc(-c2ccc3cnc(NC(=O)c4ccnc(C5CCN(C)CC5)c4)cc3c2)s1 [compound 594]	0.014 µM	0.143 µM	35.3%	0.002 µM	
Cc1nnc(-c2ccc3cnc(NC(=O)c4ccnc(N(C)C5CCN(C)CC5)c4)cc3c2)s1 [compound 595]	0.019 µM	0.0027 µM	86.2%		25.7%
